From ChEMBL document CHEMBL2010693, “Scaffold hybridization in generation of indenoindolones as anticancer agents that induce apoptosis with cell cycle arrest at G2/M phase” (Bioorg Med Chem Lett, 2012)
Activity calls are given as the source filed them. No cut-off for these calls is given here.

What was measured:
HEK293 [1] = assay: Induction of apoptosis in human HEK293 cells assessed as punchate nuclei at LC50 after 48 hrs using DAPI staining method; format: functional, cell-based
HEK293 [2] = assay: Induction of apoptosis in human HEK293 cells assessed as increase in caspase-3 cleavage after 48 hrs by Western blot analysis; format: functional, cell-based
HEK293 [3] = assay: Cytotoxicity against human HEK293 cells after 24 hrs by MTT assay; format: functional; settings: HEK293, 24 h, read-out: LC50 (the source's name)
HEK293 [4] = assay: Induction of apoptosis in human HEK293 cells assessed as shrinkage of nuclei at LC50 after 48 hrs using DAPI staining method; format: functional, cell-based
[5] = Cytotoxicity against african green monkey Vero cells after 48 hrs by MTT assay; format: cell-based; settings: chlorocebus sabaeus, read-out: LC50
HEK293 [6] = assay: Induction of apoptosis in human HEK293 cells assessed as bubble shape nuclei at LC50 after 48 hrs using DAPI staining method; format: functional, cell-based
HEK293 [7] = assay: Cytotoxicity against human HEK293 cells after 72 hrs by MTT assay; format: functional; settings: HEK293, 72 h, read-out: LC50 (the source's name)
HEK293 [8] = assay: Cytotoxicity against human HEK293 cells after 48 hrs by MTT assay; format: functional; settings: HEK293, 48 h, read-out: LC50 (the source's name)
HEK293 [9] = assay: Induction of apoptosis in human HEK293 cells assessed as reduction of Bcl-xL level after 48 hrs by Western blot analysis; format: functional, cell-based
HEK293 [10] = assay: Cell cycle arrest in human HEK293 cells assessed as accumulation at G1 phase at LC50 after 48 hrs by propidium iodide staining based FACS analysis (reference value: 53.56 %); format: functional
[11] = Cytotoxicity against african green monkey Vero cells after 24 hrs by MTT assay; format: cell-based; settings: chlorocebus sabaeus, read-out: LC50
HEK293 [12] = assay: Cell cycle arrest in human HEK293 cells assessed as accumulation at G0 phase at LC50 after 48 hrs by propidium iodide staining based FACS analysis (reference value: 3.5 %); format: functional
HEK293 [13] = assay: Induction of apoptosis in human HEK293 cells assessed as increase in caspase-3 expression after 48 hrs by immunohistochemistry analysis; format: functional, cell-based
HEK293 [14] = assay: Cell cycle arrest in human HEK293 cells assessed as accumulation at G2/M phase at LC50 after 48 hrs by propidium iodide staining based FACS analysis (reference value: 2.76 %); format: functional
HEK293 [15] = assay: Induction of apoptosis in human HEK293 cells assessed as increase in Bax expression after 48 hrs by Western blot analysis; format: functional, cell-based
[16] = Cytotoxicity against african green monkey Vero cells after 72 hrs by MTT assay; format: cell-based; settings: chlorocebus sabaeus, read-out: LC50
HEK293 [17] = assay: Cell cycle arrest in human HEK293 cells assessed as accumulation at S phase at LC50 after 48 hrs by propidium iodide staining based FACS analysis (reference value: 18.92 %); format: functional
HEK293 [18] = assay: Induction of apoptosis in human HEK293 cells assessed as increase in induction of PARP cleavage after 48 hrs by Western blot analysis; format: functional, cell-based

Row | Structure (SMILES) | Activity (HEK293 [1]) | Activity (HEK293 [2]) | CC50 (HEK293 [3]) [µM] | Activity (HEK293 [4]) | CC50 at 48 h [5] [µM] | Activity (HEK293 [6]) | CC50 (HEK293 [7]) [µM] | CC50 (HEK293 [8]) [µM] | Activity (HEK293 [9]) | Activity (HEK293 [10]) [%] | CC50 at 24 h [11] [µM] | Activity (HEK293 [12]) [%] | Activity (HEK293 [13]) | Activity (HEK293 [14]) [%] | Activity (HEK293 [15]) | CC50 at 72 h [16] [µM] | Activity (HEK293 [17]) [%] | Activity (HEK293 [18])
1 | O=C1c2ccccc2-c2c1c1ccccc1n2Cc1ccccc1 | Active | Active | 50 | Active | 53 | Active | 16 | 17 | Active | 41.21 | 57 | 0.44 | Active | 38.7 | Active | 45 | 20.19 | Active
2 | COc1cc([C@@H]2c3cc4c(cc3[C@@H](O[C@@H]3O[C@@H]5CO[C@@H](C)O[C@H]5[C@H](O)[C@H]3O)[C@H]3COC(=O)[C@H]23)OCO4)cc(OC)c1O [ETOPOSIDE] | – | – | – | – | 18 | – | – | 28 | – | – | – | – | – | – | – | – | – | –
3 | O=c1[nH]cc(F)c(=O)[nH]1 [FLUOROURACIL] | – | – | – | – | – | – | – | 25 | – | – | – | – | – | – | – | – | – | –
4 | COc1cc2c(c(OC)c1OC)-c1c(c3ccccc3n1C)C2=O | Active | Active | 39 | Active | 39 | Active | 16 | 17 | Active | 22.98 | 42 | 0.23 | Active | 57.56 | Active | 35 | 19.52 | Active
5 | O=C1c2cc(F)ccc2-c2[nH]c3ccccc3c21 | Active | Active | 18 | Active | > 100 | Active | 15 | 22 | Active | 37.31 | > 100 | 0.46 | Active | 38.9 | Active | 65 | 23.79 | Active
6 | O=C1c2ccccc2-c2[nH]c3ccccc3c21 | Active | Active | 50 | Active | 48 | Active | 14 | 15 | Active | 6.29 | 56 | 0.05 | Active | 76.44 | Active | 40 | 17.35 | Active
7 | COc1cc2c(cc1OC)-c1[nH]c3ccccc3c1C2=O | Active | Active | 16 | Active | 54 | Active | 12 | 15 | Active | 3.43 | 47 | 0.03 | Active | 73.31 | Active | 55 | 23.95 | Active
